Columns and labels:
[1] = based on animal data
[2] = system: serum iron levels; test: Subcutaneous hepcidin 50, 100, 200 μg, effect on serum iron levels in mice (Example 2); assay type: in vivo; conditions: for serum iron levels compared to vehicle: p<0.01
Method: A study was designed to evaluate doses of 50, 100, and 200 μg of hepcidin delivered subcutaneously and their effect on serum iron levels in mice (n=7/group). […] Conversely, 50 μg and 100 μg doses were elevated (p<0.01) compared to the vehicle at 24 hours post dose. The elevated levels of serum iron could be due to the system's reaction to the clearance of hepcidin. […] Mortality was likely related to the stress of the blood collection. Serum iron levels normalized 72 hours post dose.

[3] = system: serum ferritin; test: Serum ferritin in sickle cell disease and hereditary hemochromatosis patients after hepcidin (Example 5); assay type: in vivo, human; conditions: 8 days post administration
Method: Hepcidin administration lowered ferritin blood levels in sickle cell patients with high baseline ferritin. A 1 milligram bolus of hepcidin was administered subcutaneously to two male patients with sickle cell disease (patients 1001 and 1002). Serum ferritin concentrations were measured at baseline as well as eight days post administration of hepcidin. Ferritin blood levels were lower 8 days post hepcidin administration in both patients (FIG. 1). Percent changes in ferritin blood levels for patients 1001 and 1002 were −45% and −61%, respectively (FIG. 3).
Hepcidin was administered to three hereditary hemochromatosis patients with normal baseline serum ferritin concentrations. Hereditary hemochromatosis patient 1003 was administered 1 mg of hepcidin, while two other patients (2001 and 2002) were administered 5 mg of hepcidin. Ferritin blood levels were measured in all patients eight days post hepcidin administration (FIG. 2). Percent change in ferritin blood levels among patients 1003, 2001, and 2002 were 25%, −19%, and 18%, respectively (FIG. 3).

[4] = system: transferrin saturation (TSAT); test: Transferrin saturation (TSAT) in patients after hepcidin (Example 6); assay type: in vivo, human; conditions: for Transferrin saturation - percent change from baseline: eight days post administration
Method: Transferrin saturation (TSAT) was measured in patients described in Example 1. TSAT indicates the percent of iron-binding sites of transferrin that are occupied by iron, making TSAT an important tool in diagnosis and monitoring of blood disorders and disease. A one milligram bolus of hepcidin was administered to sickle cell disease patients 1001 and 1002 and hereditary hemochromatosis patient 1003, while patients 2001 and 2002 were administered 5 mg of hepcidin each. TSAT levels were measured eight days post hepcidin administration.

[5] = system: serum iron levels; test: Subcutaneous hepcidin 1, 5, 10, 50 mg, effect on serum iron levels in normal rats (Example 3); assay type: in vivo
Method: A study was designed to evaluate doses of 1, 5, 10, and 50 mg of hepcidin delivered subcutaneously and their effect on serum iron levels in normal rats (n=7/group). […] Tmax and Cmax were reached between 1 and 2 hours post dose for all dose groups, but the uptake between the high and mid dose were very similar at these time points. […] In the 5 mg dose, serum iron levels returned to pre-dose levels at 48 hours post dose.

[6] = system: serum iron concentration; test: Serum iron levels in patients after hepcidin (Example 7); assay type: in vivo, human
Method: Serum iron levels were measured in six patients with sickle cell disease patients and hereditary hemochromatosis patients post administration of hepcidin. Serum iron levels were measured prior to hepcidin administration (baseline) as well as post hepcidin administration at 2 hours, 4 hours, 8 hours, 24 hours, 48 hours, and […]. Patients were divided into two cohorts, cohort 1 was administered 1 mg of hepcidin and cohort 2 was administered 5 mg of hepcidin. Cohort 1 comprised sickle cell patients 1001 and 1002 as well as hereditary hemochromatosis patient 1003, while cohort 2 comprised hereditary hemochromatosis patients 2001, 2002, and 2004. Percent change of serum iron concentration for individual patients and average percent changes for both cohorts are shown in FIGS. 6 and 7. On average, hepcidin administration decreased serum iron concentration over an 8 day period by 35-40% in both cohorts.

[7] = Expanded acute study (NOAEL), hepcidin SC in Sprague Dawley rats (Example 4)
Method: A study was designed to evaluate doses of 5, 25, and 50 mg/kg of hepcidin (human equivalent dose of 0.8, 4, 8 mg/kg, respectively), delivered SC to Sprague Dawley rats (n=9/sex/group).

[8] = system: serum iron levels; test: Subcutaneous hepcidin, effect on serum iron levels in mice (Example 1); assay type: in vivo; conditions: 50 μg subcutaneous, p<0.05
Text: A study was designed to evaluate the effect of subcutaneous doses of hepcidin on serum iron levels in mice (n=6-7/group).

[9] = Expanded acute study (NOAEL), single subcutaneous dose of hepcidin in dogs (Example 4); assay type: in vivo; conditions: for dose at which mixed cell infiltration in the administration site was found (microscopic): males and females
Method: Increased thickness in the administration site was observed on Day 4 at 50 mg/kg and on Day 15 at ≥25 mg/kg. Microscopic findings on Day 4 consisted of mixed cell infiltration in the administration site in males and females at ≥25 mg/kg, while on Day 15, microscopic findings at the administration site included mixed cell infiltration in males and females at ≥5 mg/kg, fibrosis in males at ≥25 mg/kg and in females at ≥5 mg/kg, and cystic space in males at 50 mg/kg and in females at ≥25 mg/kg.

[10] = patient 1001, sickle cell disease, 1 mg
[11] = patient 1002, sickle cell disease, 1 mg
[12] = patient 1003, hereditary hemochromatosis, 1 mg
[13] = patient 2001, hereditary hemochromatosis, 5 mg
[14] = patient 2002, hereditary hemochromatosis, 5 mg
[15] = Sprague Dawley rats, 5, 25 and 50 mg/kg SC

In the case of `CC[C@H](C)[C@@H]1NC(=O)[C@@H](NC(=O)[C@@H](NC(=O)[C@@H]2CCCN2C(=O)[C@H](Cc2ccccc2)NC(=O)[C@H](Cc2c[nH]cn2)NC(=O)[C@@H](NC(=O)[C@@H](N)CC(=O)O)[C@@H](C)O)[C@@H](C)CC)CSSC[C@@H](C(=O)N[C@@H](CCCCN)C(=O)N[C@H](C(=O)O)[C@@H](C)O)NC(=O)[C@@H]2CSSC[C@@H]3NC(=O)[C@@H]4CSSC[C@H](NC(=O)[C@H](Cc5ccccc5)NC1=O)C(=O)N[C@@H](CSSC[C@H](NC(=O)[C@H](CCCCN)NC(=O)[C@H](CO)NC(=O)[C@H](CCCNC(=N)N)NC(=O)[C@H](Cc1c[nH]cn1)NC3=O)C(=O)NCC(=O)N[C@@H](CCSC)C(=O)N2)C(=O)NCC(=O)N4` [hepcidin], the “dose that may cause adverse effects in humans” value [1] is reported as “about 200 mg”, the “serum iron levels compared to vehicle” value ([2]; mice, 50 μg and 100 μg subcutaneous, 24 hours post dose) is reported as “elevated” and the “serum iron levels compared to vehicle” value ([2]; mice, 50, 100 and 200 μg subcutaneous, 4 hours post dose) is reported as “significant decrease”. The “time post dose at which serum iron levels normalized” value ([2]; mice, subcutaneous) was 72 h, the mortality ([2]; mice, following the 4-hour blood collection, likely related to stress of blood collection) was “One mouse died” and the “percent change in ferritin blood levels” value ([3]; patient 1001, sickle cell disease, 1 mg subcutaneous bolus) was −45%. The “percent change in ferritin blood levels” value ([3]; patient 1002, sickle cell disease, 1 mg subcutaneous bolus) was −61%, the “percent change in ferritin blood levels” value ([3]; patient 1003, hereditary hemochromatosis, normal baseline ferritin, 1 mg) was 25% and the “percent change in ferritin blood levels” value ([3]; patient 2001, hereditary hemochromatosis, normal baseline ferritin, 5 mg) was −19%. For the same compound, the “percent change in ferritin blood levels” value ([3]; patient 2002, hereditary hemochromatosis, normal baseline ferritin, 5 mg) was 18%, the “ferritin blood levels versus baseline” value ([3]; sickle cell disease patients 1001 and 1002 (high baseline ferritin), 1 mg subcutaneous bolus) was “lower” and the “TSAT at day eight versus baseline” value ([4]; all patients (1001, 1002, 1003 at 1 mg; 2001, 2002 at 5 mg)) was “percent decrease”. For the same compound, the “Transferrin saturation - percent change from baseline” value [4, 10] was −19%, the “Transferrin saturation - percent change from baseline” value [4, 11] was −62% and the “Transferrin saturation - percent change from baseline” value [4, 12] was −27%. The “Transferrin saturation - percent change from baseline” value [4, 13] was −26%, the “Transferrin saturation - percent change from baseline” value [4, 14] was −40% and the “time post dose at which serum iron levels returned to pre-dose levels” value ([5]; 5 mg subcutaneous) was 48 h. For the same compound, the “return of serum iron levels to pre-dose levels” value ([5]; 10 mg and 50 mg subcutaneous, 72 hours post dose) was “did not return to pre-dose levels”, the “effect on serum iron levels at 72 hours” value ([5]; 50 mg subcutaneous) was “still demonstrated an effect” and the serum iron levels ([5]; subcutaneous, all dose levels (1, 5, 10, 50 mg)) was “significant decrease”. The “time post dose of lowest serum iron concentrations” value ([5]; subcutaneous, all three doses) was 4 h, the lethargy ([5]; subcutaneous, any dose level) was “No lethargy was observed” and the “average decrease of serum iron concentration over an 8 day period” value ([6]; both cohorts (cohort 1: 1 mg; cohort 2: 5 mg)) was 35-40%. For the same compound, the “efficacy in human subjects” value ([6]; doses of 1 mg and 5 mg hepcidin) was “display efficacy”, the “Serum iron concentration, maximum observed percentage change from baseline” value [6, 10] was −6% and the “Serum iron concentration, percentage change from baseline 8 days after administration of hepcidin” value [6, 10] was −4%. The “Serum iron concentration, maximum observed percentage change from baseline” value [6, 11] was −69%, the “Serum iron concentration, percentage change from baseline 8 days after administration of hepcidin” value [6, 11] was −69% and the “Serum iron concentration, maximum observed percentage change from baseline” value [6, 12] was −37%. For the same compound, the “Serum iron concentration, percentage change from baseline 8 days after administration of hepcidin” value [6, 12] was −37%, the “Serum iron concentration, maximum observed percentage change from baseline” value [6, 13] was −53% and the “Serum iron concentration, percentage change from baseline 8 days after administration of hepcidin” value [6, 13] was −40%. For the same compound, the “Serum iron concentration, maximum observed percentage change from baseline” value [6, 14] was −24%, the “Serum iron concentration, percentage change from baseline 8 days after administration of hepcidin” value [6, 14] was −24% and the “Serum iron concentration, maximum observed percentage change from baseline” value ([6]; patient 2004, hereditary hemochromatosis, 5 mg) was −35%. For the same compound, the adverse effects [7, 15] was “No unexpected adverse effects were observed”, the “food consumption and body weight gain” value [7, 15] was “non-adverse, dose-independent, reductions” and the injection site finding [7, 15] was “induration”. For the same compound, the “reticulocytes and iron concentration” value [7, 15] was “dose-dependent reversible decreases”, the “unsaturated iron binding capacity” value [7, 15] was “increased” and the “average serum iron levels compared to vehicle and pre-dose levels” value ([7]; Sprague Dawley rats, 5, 25 and 50 mg/kg SC, all doses) was “significantly decreased”. For the same compound, the “time post dose of lowest serum iron level” value ([7]; Sprague Dawley rats, 5, 25 and 50 mg/kg SC, all three doses) was 4 h, the NOAEL ([7]; both, Sprague Dawley, rat, in vivo, sc) was 50 mg/kg/day and the “decrease in serum iron levels compared to vehicle (average)” value ([8]; 4 hours post dose) was 40%. For the same compound, the “decrease in serum iron levels compared to vehicle (average)” value ([8]; 24 hours post dose) was 15%, the NOAEL at 15 Day ([9]; both sexes, dog, in vivo, sc, dogs, single subcutaneous dose) was 5 mg/kg/day and the other adverse reactions ([9]; dogs, 5, 25 and 50 mg/kg single subcutaneous dose) was “hunched posture, soft feces, gross pathology finding of “thick,” and subcutaneous fibrosis, mixed cell infiltration, and cysts present at recovery period”. The “dose at which increased thickness in the administration site was observed” value ([9]; dogs, Day 4) was 50 mg/kg, the “dose at which increased thickness in the administration site was observed” value ([9]; dogs, Day 15) was ≥ 25 mg/kg and the “dose at which cystic space at the administration site was found (microscopic)” value ([9]; dogs, females, Day 15) was ≥ 25 mg/kg. For the same compound, the “dose at which fibrosis at the administration site was found (microscopic)” value ([9]; dogs, females, Day 15) was ≥ 5 mg/kg, the “dose at which mixed cell infiltration in the administration site was found (microscopic)” value ([9]; dogs, Day 4) was ≥ 25 mg/kg and the “dose at which mixed cell infiltration in the administration site was found (microscopic)” value ([9]; dogs, Day 15) was ≥ 5 mg/kg. For the same compound, the “dose at which cystic space at the administration site was found (microscopic)” value ([9]; dogs, males, Day 15) was 50 mg/kg, the “dose at which fibrosis at the administration site was found (microscopic)” value ([9]; dogs, males, Day 15) was ≥ 25 mg/kg and the “neutrophils and fibrinogen levels” value ([9]; dogs, up to Day 4, ≥25 mg/kg/day dose groups, not considered serious) was “temporary increases”.

Source: patent US20190240292A1, “METHODS OF ADMINISTERING HEPCIDIN” (priority 2016, published 2019)
